Measurements reported in US20090131351A1, “Methods, compositions, and kits for modulating tumor cell proliferation” (Antisoma Research Limited, priority 2007, published 2009).
“And” between values parts separate entries of the source, which are not always exact repeats. Equal entries are not always repeated. One block for each compound: values may come before it.

What was measured:
[1] = system: MV4-11 cells (AML cell line); experiment: Sulphorhodamine B assay, MV4-11 cells; type: cell-based, human; conditions: 6 days
Description: 1 μM AS1411 was added with varying concentrations of cytarabine (0.002 to 1.5 μM) and cells were incubated for 6 days. A control was run with the 1 μM AS1411 without cytarabine. A second control series was run with the varying amounts of cytarabine but with no AS1411 present.
The remaining cell mass after exposure to AS1411 was measured with a spectrophotometer and IC50 determined.

ZR75-1 = experiment: Tumor cell line sensitivity to AS1411; type: cell-based
PANC-1 = experiment: Tumor cell line sensitivity to AS1411; type: cell-based
SK-MEL-28 = experiment: Tumor cell line sensitivity to AS1411; type: cell-based
HGC.27 = experiment: Tumor cell line sensitivity to AS1411; type: cell-based
DU-145 = experiment: Tumor cell line sensitivity to AS1411; type: cell-based
MCF-7 = experiment: Tumor cell line sensitivity to AS1411; type: cell-based
KATO III = experiment: Tumor cell line sensitivity to AS1411; type: cell-based
A498 = experiment: Tumor cell line sensitivity to AS1411; type: cell-based
CALU06 = experiment: Tumor cell line sensitivity to AS1411; type: cell-based
LS174T = experiment: Tumor cell line sensitivity to AS1411; type: cell-based
KG-1 (AML cell line) = experiment: Sulphorhodamine B assay, KG-1 cells; type: cell-based; conditions: 6 days, SRB
Description: (§1) MV4-11 cells (AML cell line available and obtained from ATCC under catalogue number CRL-9591) were seeded in wells of a 96-well plate at a number optimised for each cell line. 1 μM AS1411 was added with varying concentrations of cytarabine (0.002 to 1.5 μM) and cells were incubated for 6 days. A control was run with the 1 μM AS1411 without cytarabine. A second control series was run with the varying amounts of cytarabine but with no AS1411 present.
(§2) Cells were then washed, fixed to the 96-well plate and exposed to the dye Sulphorhodamine B (SRB; available from Sigma-Aldrich, Dorset, UK; catalogue number S-1402). The remaining cell mass after exposure to AS1411 was measured with a spectrophotometer and IC50 determined.
(§3) Multiple haematological cancer cell lines were exposed to varying concentrations of AS1411 over a period of 6 days according to the Sulphorhodamine B assay described in Example 1. […] (See FIG. 2). […] Normal fibroblast and B cells were however unaffected by similar concentrations of AS1411.

U87-MG = experiment: Tumor cell line sensitivity to AS1411; type: cell-based
AML cell line = experiment: Apoptosis, caspase, DNA fragmentation, PS externalization and cell cycle effects of AS1411 in AML cell line; type: cell-based; conditions: AS1411 administered to AML cell line
A549 = experiment: Tumor cell line sensitivity to AS1411; type: cell-based
HL-60 (AML cell line) = experiment: Sulphorhodamine B assay, HL-60 cells; type: cell-based; conditions: 6 days, SRB
Description: as §1, §2, §3

HT-29 = experiment: Tumor cell line sensitivity to AS1411; type: cell-based
B cells = experiment: Effect of AS1411 on normal cells; type: cell-based; conditions: similar concentrations of AS1411
Excerpt: as §3

Normal fibroblast = experiment: Effect of AS1411 on normal cells; type: cell-based; conditions: similar concentrations of AS1411
Excerpt: as §3

PC3 = experiment: Tumor cell line sensitivity to AS1411; type: cell-based
[2] = system: human AML cell line MV4-11 xenografts; experiment: Combination therapy in a xenograft mouse model; type: in vivo, nu/nu MF1 mouse; conditions: for Fractional Tumor Volume (FTV) relative to untreated controls: single agent; for Average volume of tumors at 7 days post-treatment (tumor volume change): group average, Cytarabine 80 mg/kg/daily i.p.; for Average volume of tumors at 7 days post-treatment (tumor volume change) / Volume of individual tumors at 7 days post-treatment (indicating tumor volume change): day 7, AS1411 40 mg/kg/day s.c. minipump; for Volume of individual tumors at 7 days post-treatment (indicating tumor volume change): individual mice, Cytarabine 80 mg/kg/daily i.p. 5 days
Description: The nu/nu MF1 mouse strain has been used previously at these laboratories and background data are available. A total of 50 female MF1 mice were obtained from the Biological Research Facility, SGHMS, London) in a weight range of 5 to 6 weeks of age (nominally 23-28 g). Mice were individually identified using a subcutaneously implanted microchip.
The xenografts were prepared from the human AML cell line MV4-11 (DSMZ Number: CCL-102). Cells were grown in accordance with Standard Operating Procedures (SOP) and established methodology; suitable methods are known in the art. Cells were suspended at 2.0×10^8 cells/ml in ice-cold PBS, mixed 1:1 with ice-cold Matrigel™ Matrix (BD Biosciences, Lot 61459) and kept on ice until the time of injection into animals. Mice were injected subcutaneously with 100 μl cell suspension on the right flank.
Animals were checked regularly until visible tumors appeared. Tumors were measured in accordance with the relevant SOP twice per week and tumor volume calculated using the formula: Volume=(π÷6000)×(Tumor Length×Tumor Width×Tumor Height).
Measurements commenced approximately one week before the day of treatment when the xenograft had reached a volume of >0.03 cm^3.
Once the tumors were established, mice were allocated into groups using a randomisation procedure based on stratified xenograft volume. Measurements were recorded electronically using electronic calipers and the Trojan system for data capture.
Day 0 is defined as the day on which the average tumor volume is between 0.07 to 0.08 cm^3. Relative tumor volume on Day 0 is defined as 1.
AS1411 (manufactured by Avecia, UK, batch number: AQV-07H-005; expiry date 02/2009) was given by continuous infusion using ALZET mini-osmotic pumps (Durect Corp. CA, USA). The mini-pumps were implanted subcutaneously on days 0 on the left flank of mice (opposite to the tumor location). Mice received a dose of 40 mg/kg/day with a dose-volume of 1 μl/h lasting for 7 days. The minipumps were then removed and a second drug-loaded minipump implantation in the same location to last a further 7 days.
The intraperitoneal route of administration of Cytarabine was selected. Mice were administered with Cytarabine (DBL, Australia; batch number: TO11966AA; expiry date 02/2009) at 80 mg/kg/daily for 5 consecutive days with a dose-volume of 8 μl/g body weight starting on day 0. After 2 days gap a second cycle of a similar 5-day dosing was initiated on day 7. Control mice were untreated.
Mice (n=10) were allocated to groups as follows: • Untreated controls • Cytarabine alone • AS1411 alone • Cytarabine+AS1411
The Fractional Product method was used to analyse the combination therapy (Yokohama et al., 2000, Cancer Res., 60:2190-6). According to this method, the effects of two drugs, when combined, can be calculated by multiplying the fractional tumor volume (treated volume/control volume on a given day) by each single drug. If the effect of the drugs acting simultaneously is equal to or larger than that calculated, it would be assumed that additivity, or synergism, respectively, has occurred.
[Mean tumor volume test]/[Mean tumor volume control]
[Mean FTV of […]]×[Mean FTV of AS1411]
[Expected FTV]/[Observed FTV]
A combination therapy index R>1.0 indicates a synergistic effect.
A combination therapy index R<1.0 indicates a less than additive effect.

SKOV-3 = experiment: Tumor cell line sensitivity to AS1411; type: cell-based

Compound: 5′-GGTGGTGGTGGTTGTGGTGG TGGTGG-3′ [AS1411]
IC50 ([1]; AS1411 alone, SRB): low
sensitivity to AS1411 (ZR75-1): sensitivity
sensitivity to AS1411 (PANC-1): sensitivity
sensitivity to AS1411 (SK-MEL-28): sensitivity
sensitivity to AS1411 (HGC.27): sensitivity
sensitivity to AS1411 (DU-145): sensitivity
sensitivity to AS1411 (MCF-7): sensitivity
sensitivity to AS1411 (KATO III): sensitivity
sensitivity to AS1411 (A498): sensitivity
sensitivity to AS1411 (CALU06): sensitivity
sensitivity to AS1411 (LS174T): sensitivity
IC50 (KG-1 (AML cell line)): low
sensitivity to AS1411 (U87-MG): sensitivity
DNA fragmentation (AML cell line): dose-dependent increase
PS externalization (AML cell line): increase
apoptosis (AML cell line): induction
caspase activity (AML cell line): increase
cell cycle effect in tumor cells (AML cell line): arrest at the S-phase
sensitivity to AS1411 (A549): sensitivity
IC50 (HL-60 (AML cell line)): low
sensitivity to AS1411 (HT-29): sensitivity
effect on normal cells (B cells): unaffected
effect on normal cells (Normal fibroblast): unaffected
sensitivity to AS1411 (PC3): sensitivity
Relative tumor volume (relative to tumor volume at Day 0 of treatment) ([2]; Day 0 (defined as 1)): 1.000
Relative tumor volume (relative to tumor volume at Day 0 of treatment) ([2]; Day 4): 2.500
Fractional Tumor Volume (FTV) relative to untreated controls ([2]; Day 4): 0.848
Relative tumor volume (relative to tumor volume at Day 0 of treatment) ([2]; Day 7): 3.900
Fractional Tumor Volume (FTV) relative to untreated controls ([2]; Day 7): 0.915
Average volume of tumors at 7 days post-treatment (tumor volume change) [2]: Average = 3.9
Volume of individual tumors at 7 days post-treatment (indicating tumor volume change) [2]: 3.5 and 5.9 and 3.0 and 3.3 and 4.8 and 5.5 and 2.5 (2×) and 3.8 and 4.5 and 1.1
sensitivity to AS1411 (SKOV-3): sensitivity

reduction of IC50 of cytarabine by combination with AS1411 ([1]; cytarabine 0.002 to 1.5 μM with 1 μM AS1411 vs cytarabine alone): more than three-fold
Compound: Nc1ccn([C@@H]2O[C@H](CO)[C@@H](O)[C@@H]2O)c(=O)n1 [Cytarabine, 1β-arabinofuranosylcytosine, reference compound]
Relative tumor volume (relative to tumor volume at Day 0 of treatment) ([2]; Day 0 (defined as 1)): 1.000
Relative tumor volume (relative to tumor volume at Day 0 of treatment) ([2]; Day 4): 1.900
Fractional Tumor Volume (FTV) relative to untreated controls ([2]; Day 4): 0.713
Relative tumor volume (relative to tumor volume at Day 0 of treatment) ([2]; Day 7): 3.100
Fractional Tumor Volume (FTV) relative to untreated controls ([2]; Day 7): 0.844
Average volume of tumors at 7 days post-treatment (tumor volume change) [2]: Average = 3.1
Volume of individual tumors at 7 days post-treatment (indicating tumor volume change) [2]: 7.2 and 3.5 and 2.8 and 1.5 and 2.4 (2×) and 3.4 and 2.5 and 2.2 and 1.1
